Measured values from patent publication US12650423B2, “Pharmaceutical compositions and use thereof” (HADASIT MEDICAL RESEARCH SERVICES & DEVELOPMENT LTD., priority 2020, dated 2026).

Tested on: mouse DTH model
Experiment: Mouse delayed-type hypersensitivity (DTH) model, oxazalone ear swelling
Format: in vivo
Conditions: BALB/c mice, oxazalone challenge of right ear, 24 hr after challenge; histology FIGS. 15C-15D
Description: Mouse DTH in-vivo assay is an inflammatory model which is known as type IV hypersensitivity reactions and is mediated by soluble antigens primarily involving CD4+ or CD8+ T cell activation. This assay is characterized by the release of mediators from activated T cells. The T cells then activate local endothelial cells and recruit macrophages, which results in local inflammation and swelling. In this assay, female BALB/c mice were sensitized on the shaved abdominal skin with 100 μl of 2% oxazalone dissolved in acetone/olive oil [4:1 (vol/vol)] applied topically (day 0). DTH sensitivity was elicited 6 days later by challenging the mice with 20 μl of 0.5% oxazalone in acetone/olive oil, 10 μl administered topically to each side of the right ear. Control group was subcutaneously injected with Dexamethasone 100 μg/mouse in a total volume of 200 μl. 24 hr after challenge the swelling of the right ear was measured using a Micrometer, digital caliper (Mitutoyo Corp, Tokyo, Japan). The swelling of the left ear was served as control and the readout of this experiment model was the delta between the right and left ear (FIG. 15E).

## OC1(c2ccc(Cl)c(C(F)(F)F)c2)CCN(CCCC(c2ccc(F)cc2)c2ccc(F)cc2)CC1 [Penfluridol]
  effect in mouse DTH model: pro-inflammatory effect
